Source: patent US6667336B2, “GlyT-1 inhibitors” (NPS Allelix Corp., priority 2002, dated 2003)
Values joined by “and” are separate entries in the source; they are usually repeats but may differ in a detail not shown here. Equal entries are not always repeated.

Tested on: male CD-1 mice
Test: 5 day chronic oral dosing toxicity study in mice (clinical signs)
Type: in vivo
Parameters: key to Clinical signs (observation code), Day 1, 24 hours / Clinical signs (observation code), Day 2, 24 hours / Clinical signs (observation code), Day 3, 24 hours / Clinical signs (observation code), Day 4, 24 hours / Clinical signs (observation code), Day 5, 24 hours / Clinical signs (observation code), Day 1, 4 hours / Clinical signs (observation code), Day 2, 4 hours / Clinical signs (observation code), Day 3, 4 hours / Clinical signs (observation code), Day 4, 4 hours / Clinical signs (observation code), Day 5, 4 hours: 0: Appeared Normal; 1: Activity (inc./dec.); 2: Sedation/Lethargy; 3: Piloerection; 4: Stereotypy; 5: Soft Stool; 6: Chromodacryorrhea; 7: Epistaxis; 8: Cyanosis; 9: Flaccidity; 10: Respiration; 11: Hunched Posture; 12: Enophthalmia; 13: Exophthalmia; 14: Palpabral Ptosis; 15: Loss of Righting; 16: Chromaturia; 17: Salivation; 18: Lacrimation; 19: Miosis; 20: Mydriasis; 21: Rigidity; 22: Ataxia; 23: Tremors; 24: Convulsions; 25: Catalepsy; 26: Lateral Recumbency; 27: Death
Settings: for Clinical signs (observation code), Day 1, 4 hours / Clinical signs (observation code), Day 1, 24 hours / Clinical signs (observation code), Day 2, 4 hours / Clinical signs (observation code), Day 2, 24 hours / Clinical signs (observation code), Day 3, 4 hours / Clinical signs (observation code), Day 3, 24 hours / Clinical signs (observation code), Day 4, 4 hours / Clinical signs (observation code), Day 4, 24 hours / Clinical signs (observation code), Day 5, 4 hours / Clinical signs (observation code), Day 5, 24 hours: one line per animal; for Toxicity profile in comparison (compounds of formula 1 vs other GlyT1 inhibitors of similar potency): 5 day oral dosing in mice, tables 1-18
Method: This example illustrated a 5 day chronic oral dosing toxicity study with GlyT1 inhibitors. […] Behavioral observations (clinical signs) and body weights were recorded daily for all compounds tested. Male CD-1 mice were purchased from Charles River Labs (Kingston, N.Y.). The animals weighed between 20-25 grams upon arrival. Animals were acclimatized in a temperature/humidity (72° ±5° F./50%±5%) controlled vivarium, with a common 12 hour light/dark cycle (Lights on 0700 hrs) for 5 days prior to test. All animals were allowed food (Purina Labdiete® Rodent chow # 5001) and water (supplied by Elizabethtown Water Company) ad libitum during the acclimation period and throughout the study. On the day prior to test initiation animals were randomly assigned to groups: All animals chosen for test weighed at least 20 grams and appeared in good condition. Each animal was dosed once daily for 5 days. Animals remained on site for a 3 day recovery period following the chronic dosing period.
A stock concentration of each test compound was prepared fresh on the day of study initiation. Aliquots were diluted to the needed concentrations for daily dosing. Stock solutions were kept in a refrigerator when not in use. Each compound was dissolved in a small amount of distilled water. One equivalent of sodium hydroxide (2 N) may have been added to aid in dissolution of each test agent. Vehicle was then added quantum sufficiat to give the final volume. Final volumes were adjusted to reflect percent free base when appropriate. The vehicle used in this experiment was Hydroxypropyl-β-cyclodextrine (HPCD) Acros, lot 011849601, dissolved in distilled water to form a 10% weight/volume concentration. The pH was adjusted, using sodium hydroxide (2 N), to equal that of the test agents (usually between 8 to 10). All prepared test compounds were either in solution, and clear, or in suspension, and slightly cloudy. Suspensions were mixed immediately prior to use.
All animals were administered either test compound or vehicle Per Os (PO) via 21 gauge gavage needles, in volumes of 10.0 ml/kg. Daily body weights were used to determine individual dosing volumes. All test compounds were weighed on a Denver Instruments analytical balance (model # A-250). Animals were weighed on a top loading Ohaus portable balance model # LS2000.
Animals were assessed for overt behaviors (clinical signs) immediately following administration of test agents, then again at 4 and 24 hours. Animals were assessed for 27 separate clinical signs:
Toxicity data obtained through the assay as described above is provided in Tables 1 to 14 for Compounds Gi to Gxiv inclusive. The animals were observed immediately following administration and again at 4 hours and 24 hours. Observations are reported using the code number from the following chart: […]

[1] = 40 mg/kg/day PO, male CD-1 mice

CN(C/C=C(/c1ccc(-c2ccsc2)cc1)c1ccsc1)CC(=O)O [Compound G(ii), (Z)-N-(1-(4-(3-Thienyl)phenyl)-1-(3-thienyl)prop-1-en-3-yl)sarcosine]
Clinical signs (observation code), Day 1, 4 hours [1]: 0 | Clinical signs (observation code), Day 1, 24 hours [1]: 0 | Clinical signs (observation code), Day 2, 4 hours [1]: 0 (2×) and 1 | Clinical signs (observation code), Day 2, 24 hours [1]: 0 | Clinical signs (observation code), Day 3, 4 hours [1]: 0 | Clinical signs (observation code), Day 3, 24 hours [1]: 0 | Clinical signs (observation code), Day 4, 4 hours [1]: 0 | Clinical signs (observation code), Day 4, 24 hours [1]: 0 | Clinical signs (observation code), Day 5, 4 hours [1]: 0 and 14 | Clinical signs (observation code), Day 5, 24 hours [1]: 0

CN(C/C=C(/c1ccc(-c2cccc(C#N)c2)cc1)c1ccsc1)CC(=O)O [Compound G(viii), (Z)-N-(1-(4-(3-Cyanophenyl)phenyl)-1-(3-thienyl)prop-1-en-3-yl)sarcosine]
Clinical signs (observation code), Day 1, 4 hours [1]: 0 | Clinical signs (observation code), Day 1, 24 hours [1]: 0 | Clinical signs (observation code), Day 2, 4 hours [1]: 0 | Clinical signs (observation code), Day 2, 24 hours [1]: 0 | Clinical signs (observation code), Day 3, 4 hours [1]: 0 | Clinical signs (observation code), Day 3, 24 hours [1]: 0 | Clinical signs (observation code), Day 4, 4 hours [1]: 0 | Clinical signs (observation code), Day 4, 24 hours [1]: 0 | Clinical signs (observation code), Day 5, 4 hours [1]: 0 | Clinical signs (observation code), Day 5, 24 hours [1]: 0

CC(C)c1ccc(-c2ccc(/C(=C/CN(C)CC(=O)O)c3ccsc3)cc2)cc1 [Compound G(i), (Z)-N-(1-(4-(4-Isopropylphenyl)phenyl)-1-(3-thienyl)prop-1-en-3-yl)sarcosine]
Clinical signs (observation code), Day 1, 4 hours [1]: 0 | Clinical signs (observation code), Day 1, 24 hours [1]: 0 | Clinical signs (observation code), Day 2, 4 hours [1]: 0 | Clinical signs (observation code), Day 2, 24 hours [1]: 0 | Clinical signs (observation code), Day 3, 4 hours [1]: 0 | Clinical signs (observation code), Day 3, 24 hours [1]: 0 | Clinical signs (observation code), Day 4, 4 hours [1]: 0 | Clinical signs (observation code), Day 4, 24 hours [1]: 0 | Clinical signs (observation code), Day 5, 4 hours [1]: 0 | Clinical signs (observation code), Day 5, 24 hours [1]: 0

CN(C/C=C(\c1ccccc1)c1ccc(-c2ccccc2)cc1)CC(=O)O [Compound J, reference compound]
Toxicity profile in comparison (compounds of formula 1 vs other GlyT1 inhibitors of similar potency): higher toxicity profile | Clinical signs (observation code), Day 4, 4 hours (PO, mice): 0 | Clinical signs (observation code), Day 1, 4 hours (dose 10 (m↓kg) PO, mice): 0 | Clinical signs (observation code), Day 2, 4 hours (dose 10 (m↓kg) PO, mice): 0 | Clinical signs (observation code), Day 3, 4 hours (dose 10 (m↓kg) PO, mice): 0 | Clinical signs (observation code), Day 5, 4 hours (dose 10 (m↓kg) PO, mice): 0 | Clinical signs (observation code), Day 1, 24 hours (dose 25 (m↓kg) PO, mice): 0 | Clinical signs (observation code), Day 2, 24 hours (dose 25 (m↓kg) PO, mice): 0 and 2

CN(C/C=C(\c1ccccc1)c1ccc(-c2ccsc2)cc1)CC(=O)O [Compound I, reference compound]
Clinical signs (observation code), Day 1, 24 hours [1]: 0 | Clinical signs (observation code), Day 2, 24 hours [1]: 0 | Clinical signs (observation code), Day 3, 24 hours [1]: 0 | Clinical signs (observation code), Day 4, 24 hours [1]: 0 | Toxicity profile in comparison (compounds of formula 1 vs other GlyT1 inhibitors of similar potency): higher toxicity profile

Cc1cccc(-c2ccc(/C(=C/CN(C)CC(=O)O)c3sccc3C)cc2)c1 [Compound G(xiii), (Z)-N-(1-(4-(3-Methylphenyl)phenyl)-1-(2-(3-methylthienyl))prop-1-en-3-yl)sarcosine]
Clinical signs (observation code), Day 1, 4 hours [1]: 0 | Clinical signs (observation code), Day 1, 24 hours [1]: 0 | Clinical signs (observation code), Day 2, 4 hours [1]: 0 | Clinical signs (observation code), Day 2, 24 hours [1]: 0 | Clinical signs (observation code), Day 3, 4 hours [1]: 0 | Clinical signs (observation code), Day 3, 24 hours [1]: 0 | Clinical signs (observation code), Day 4, 4 hours [1]: 0 | Clinical signs (observation code), Day 4, 24 hours [1]: 0 | Clinical signs (observation code), Day 5, 4 hours [1]: 0

CN(C/C=C(/c1ccc(-c2cccc(OC(F)(F)F)c2)cc1)c1ccsc1)CC(=O)O [Compound G(vii), (Z)-N-(1-(4-(3-(Trifluoromethoxy)phenyl)phenyl)-1-(3-thienyl)prop-1-en-3-yl)sarcosine]
Clinical signs (observation code), Day 1, 4 hours [1]: 0 | Clinical signs (observation code), Day 1, 24 hours [1]: 0 | Clinical signs (observation code), Day 2, 4 hours [1]: 0 | Clinical signs (observation code), Day 2, 24 hours [1]: 0 | Clinical signs (observation code), Day 3, 4 hours [1]: 0 | Clinical signs (observation code), Day 3, 24 hours [1]: 0 | Clinical signs (observation code), Day 4, 4 hours [1]: 0 | Clinical signs (observation code), Day 4, 24 hours [1]: 0 | Clinical signs (observation code), Day 5, 4 hours [1]: 0 | Clinical signs (observation code), Day 5, 24 hours [1]: 0

CC(C)c1ccc(/C(=C/CN(C)CC(=O)O)c2ccsc2)cc1 [Compound H, reference compound]
Toxicity profile in comparison (compounds of formula 1 vs other GlyT1 inhibitors of similar potency): higher toxicity profile

Cc1ccccc1/C(=C\CN(C)CC(=O)O)c1ccc(-c2ccsc2)cc1 [Compound G(xiv), (Z)-N-(1-(4-(3-Thienyl)phenyl)-1-(2-methylphenyl)prop-1-en-3-yl)sarcosine]
Clinical signs (observation code), Day 1, 4 hours [1]: 0 | Clinical signs (observation code), Day 1, 24 hours [1]: 0 | Clinical signs (observation code), Day 2, 4 hours [1]: 0 | Clinical signs (observation code), Day 2, 24 hours [1]: 0 | Clinical signs (observation code), Day 3, 4 hours [1]: 0 | Clinical signs (observation code), Day 3, 24 hours [1]: 0 | Clinical signs (observation code), Day 4, 4 hours [1]: 0 | Clinical signs (observation code), Day 4, 24 hours [1]: 0 | Clinical signs (observation code), Day 5, 4 hours [1]: 0 | Clinical signs (observation code), Day 5, 24 hours [1]: 0

COc1cccc(-c2ccc(/C(=C/CN(C)CC(=O)O)c3cscc3C)cc2)c1 [Compound G(xii), (Z)-N-(1-(4-(3-Methoxyphenyl)phenyl)-1-(3-(4-methylthienyl))prop-1-en-3-yl)sarcosine]
Clinical signs (observation code), Day 1, 4 hours [1]: 0 | Clinical signs (observation code), Day 1, 24 hours [1]: 0 | Clinical signs (observation code), Day 2, 4 hours [1]: 0 | Clinical signs (observation code), Day 2, 24 hours [1]: 0 | Clinical signs (observation code), Day 3, 4 hours [1]: 0 | Clinical signs (observation code), Day 3, 24 hours [1]: 0 | Clinical signs (observation code), Day 4, 4 hours [1]: 0 | Clinical signs (observation code), Day 4, 24 hours [1]: 0 | Clinical signs (observation code), Day 5, 4 hours [1]: 0

Cc1cscc1/C(=C\CN(C)CC(=O)O)c1ccc(-c2cccc(C(F)(F)F)c2)cc1 [Compound G(xi), (Z)-N-(1-(4-(3-(Trifluoromethyl)phenyl)phenyl)-1-(3-(4-methylthienyl))prop-1-en-3-yl)sarcosine]
Clinical signs (observation code), Day 1, 4 hours [1]: 0 | Clinical signs (observation code), Day 1, 24 hours [1]: 0 | Clinical signs (observation code), Day 2, 4 hours [1]: 0 | Clinical signs (observation code), Day 2, 24 hours [1]: 0 | Clinical signs (observation code), Day 3, 4 hours [1]: 0 | Clinical signs (observation code), Day 3, 24 hours [1]: 0 | Clinical signs (observation code), Day 4, 4 hours [1]: 0 | Clinical signs (observation code), Day 4, 24 hours [1]: 0 | Clinical signs (observation code), Day 5, 4 hours [1]: 0

Cc1cscc1/C(=C\CN(C)CC(=O)O)c1ccc(-c2ccsc2)cc1 [Compound G(x), (Z)-N-(1-(4-(3-Thienyl)phenyl)-1-(3-(4-methylthienyl))prop-1-en-3-yl)sarcosine]
Clinical signs (observation code), Day 1, 4 hours [1]: 0 | Clinical signs (observation code), Day 1, 24 hours [1]: 0 | Clinical signs (observation code), Day 2, 4 hours [1]: 0 | Clinical signs (observation code), Day 2, 24 hours [1]: 0 | Clinical signs (observation code), Day 3, 4 hours [1]: 0 | Clinical signs (observation code), Day 3, 24 hours [1]: 0 | Clinical signs (observation code), Day 4, 4 hours [1]: 0 | Clinical signs (observation code), Day 4, 24 hours [1]: 0 | Clinical signs (observation code), Day 5, 4 hours [1]: 0
